According to patent publication US8450281B2, “Non-immunosuppressive cyclosporin for treatment of Ullrich congenital muscular dystrophy” (Debiopharm S.A., priority 2007, dated 2013):

Assays:
[1] = system: muscle cell cultures from UCMD patients and healthy donors; assay: Electron microscopy of mitochondria in muscle cell cultures; format: cell-based, human; settings: for percentage of cells with swollen mitochondria: oligomycin treatment
Text: The muscle cell cultures established from healthy donors and from patients 1, 2 and 3 were studied by electron microscopy.

[2] = Initial phase I clinical studies, safety of oral doses; format: in vivo, human
Protocol: Initial phase I clinical studies were carried out to assess the safety of oral doses of [D-MeAla]^3-[EtVal]^4-CsA, and to determine the pharmacokinetic profile and safety profile of the drug substance. […] These side effects were not dose-related.

[3] = system: myoblast cultures from UCMD patients; assay: Mitochondrial TMRM fluorescence (membrane potential) after oligomycin in myoblast cultures from UCMD patients; format: cell-based, human; settings: muscle cell cultures from UCMD patients
Protocol: To assess whether the anti-apoptotic effects of collagen VI and CsA could be traced to mitochondria, mitochondrial function was studied in living muscle cell cultures. […] Addition of oligomycin was instead followed by mitochondrial depolarization in the cells from all UCMD patients. […] Mitochondrial membrane potential was assessed based on accumulation of tetramethylrhodamine methyl ester (TMRM). It is noted that oligomycin was expected to cause hyperpolarization in healthy, respiring cells in which the mitochondrial membrane potential is maintained by proton pumping by the respiratory chain and the proton electrochemical gradient is used to drive ATP synthesis.
Panels A and B of FIG. 1 show mitochondrial membrane potentials in myoblasts from UCMD patients 1 (A) and 4 (B) as a function of time. Mitochondrial membrane potential was measured based on accumulation of tetramethylrhodamine methyl ester (TMRM). […] The extent of cell and, consequently, mitochondrial loading with potentiometric probes is affected by the activity of the plasma membrane multidrug resistance pump which is inhibited by cyclosporin A. Treatment with cyclosporins may therefore cause an increased mitochondrial fluorescence that can be erroneously interpreted as an increase of mitochondrial membrane potential. […] Data were acquired and analyzed using Cell R software (Olympus). […] Apoptosis was assessed as described before.

UCMD and BM patients = assay: Preliminary clinical trial, TMRM assay on muscle biopsies of UCMD and BM patients; format: in vivo, human; settings: daily oral dose of 5 mg/kg for thirty days
Protocol: Five patients were enroIled, of which four suffered from UCMD and one of BM. The patients had mutation in their COL6A1, COL6A2 or COL6A3 genes, respectively. The trial was designed to test whether treatment with CsA was effective in reducing mitochondrial dysfunction as assessed by the ability of oligomycin to cause mitochondrial depolarization in muscle fibers. Depolarization was detected as a change in TMRM fluorescence. Patients were treated with a daily oral dose of 5 mg/kg CsA for a period of thirty days. Muscle biopsies were taken immediately before and after the treatment period and were processed for TMRM assay.

[4] = system: myoblast cultures from UCMD patients; assay: TUNEL incidence of apoptosis in myoblast cultures from UCMD patients; format: cell-based, human; settings: myoblast cultures from UCMD patients 1-4
Protocol: Experiments were carried out to experimentally test the existence of a causal link between lack of collagen VI and apoptosis. Myoblast cultures were prepared from muscle biopsies of two unaffected controls and from patients 1, 2, 3 and 4 by enzymatic and mechanical treatment and plating in Dulbecco's modified Eagle's medium (DMEM) supplemented with 20% fetal calf serum, penicillin, streptomycin and amphotericin B (Sigma). To test for apoptosis, cells were fixed in 50% acetone-50% methanol and processed for TUNEL analysis using the Dead End Fluorescence TUNEL System (Promega). Visualization of all nuclei was performed by staining with Hoechst 33258. […] Demir et al. 2002. Giusti et al. 2005.
Panels A and B of FIG. 1 show mitochondrial membrane potentials in myoblasts from UCMD patients 1 (A) and 4 (B) as a function of time. Mitochondrial membrane potential was measured based on accumulation of tetramethylrhodamine methyl ester (TMRM). […] The extent of cell and, consequently, mitochondrial loading with potentiometric probes is affected by the activity of the plasma membrane multidrug resistance pump which is inhibited by cyclosporin A. Treatment with cyclosporins may therefore cause an increased mitochondrial fluorescence that can be erroneously interpreted as an increase of mitochondrial membrane potential. […] Data were acquired and analyzed using Cell R software (Olympus). […]

## CC[C@H]1/C=C/C=C/C[C@@H](C)[C@H](O)[C@@](C)(O)C(=O)[C@@H](C)[C@H](O)[C@@H](C)C(=O)[C@@H](C)[C@H](O)[C@@H](C)/C=C/C(=O)O[C@@H]2[C@H](C)[C@H](CC1)O[C@]1(CC[C@H](C)[C@H](C[C@@H](C)O)O1)[C@H]2C [oligomycin]
[1]; control (healthy donor) cultures
  percentage of cells with swollen mitochondria: 4%
[1]; cultures from UCMD patients
  percentage of cells with swollen mitochondria: over 40%

## C/C=C/C[C@@H](C)[C@@H](O)[C@H]1C(=O)N[C@@H](CC)C(=O)N(C)[C@H](C)C(=O)N(CC)[C@@H](C(C)C)C(=O)N[C@@H](C(C)C)C(=O)N(C)[C@@H](CC(C)C)C(=O)N[C@@H](C)C(=O)N[C@H](C)C(=O)N(C)[C@@H](CC(C)C)C(=O)N(C)[C@@H](CC(C)C)C(=O)N(C)[C@@H](C(C)C)C(=O)N1C [[D-MeAla]^3-[EtVal]^4-CsA]
[2]; oral doses of 50 to 1600 mg in a micro-emulsion in water
  tolerability: well tolerated
[2]; oral doses of 50 to 1600 mg, not dose-related
  side effects: Mild and short-lived side effects were observed including nausea, vomiting, abdominal pain, and mild headaches

## CC(=O)OCOC(=O)CN(CC(=O)OCOC(C)=O)c1ccccc1OCCOc1ccccc1N(CC(=O)OCOC(C)=O)CC(=O)OCOC(C)=O [BAPTA-AM]
[3]
  response to oligomycin (mitochondrial depolarization, TMRM): fully normalized

## cyclosporin A
UCMD and BM patients
  mitochondrial dysfunction as assayed by oligomycin-induced depolarization: capable of substantially reducing mitochondrial dysfunction
UCMD and BM patients; average of five patients, 90% prior to treatment
  muscle cells depolarizing on oligomycin, subsequent to treatment: 37%
[1]; UCMD cells, no oligomycin
  number of cells with swollen mitochondria: decreased the number of cells with swoIlen mitochondria to the values observed in cultures from healthy donors
[1]; oligomycin-treated cultures plus cyclosporin A
  percentage of cells bearing swollen mitochondria after oligomycin: restored to values similar to basal
[3]
  response to oligomycin (mitochondrial depolarization, TMRM): fully normalized
[4]
  occurrence of apoptosis (TUNEL) in the patient samples: fully normalized the occurrence of apoptosis
